Here are results for 48 compounds from PMC11995724, “Antibiotic target discovery by integrated phenotypic and activity-based profiling of electrophilic fragments” (Cell chemical biology, 2025).

Counter-ions that a name gives are not always drawn.

A short description of the data set: in vitro. To be noted: human, hek293t cells.
For orientation: viability means a read-out of living cells in per cent, often relative to untreated cells. Take `CC(Cl)C(=O)NC1CCN(CC(=O)Nc2ccccc2)CC1` (stereo not drawn) [7-E13, 2-chloro-N-{1-[(phenylcarbamoyl)methyl]piperidin-4-yl}propanamide]: the viability at 48 h, 25 µM is 85.2%. Turning to `CC(Cl)C(=O)N(Cc1cccs1)[C@@H]1C=C[C@H](CO)C1` (stereo partly drawn) [7-E14, 2-chloro-N-[(1S,4R)-4-(hydroxymethyl)cyclopent-2-en-1-yl]-N-[(thiophen-2-yl)methyl]propanamide], the viability at 48 h, 25 µM was 87.9%.

Regarding `CC(Cl)C(=O)NC(C)(C)c1cccc(Cl)c1F` (stereo not drawn) [7-E15, 2-chloro-N-[2-(3-chloro-2-fluorophenyl)propan-2-yl]propanamide], the viability at 48 h, 25 µM came out at 91.2%. The same measure for `CC(Cl)C(=O)NC1c2cc(F)ccc2CC1C` (stereo not drawn) [7-E16, 2-chloro-N-(6-fluoro-2-methyl-2,3-dihydro-1H-inden-1-yl)propanamide]: 74.7%; for `CC(Cl)C(=O)NCCC1(C)OCCO1` (stereo not drawn) [7-E17, 2-chloro-N-[2-(2-methyl-1,3-dioxolan-2-yl)ethyl]propanamide]: 82.4%. The figure for `CC(Cl)C(=O)N1CCC(N(C)Cc2cc(=O)[nH]c(N(C)C)n2)C1` (stereo not drawn) [7-E18, 6-({[1-(2-chloropropanoyl)pyrrolidin-3-yl](methyl)amino}methyl)-2-(dimethylamino)-3,4-dihydropyrimidin-4-one] is 72.3%; for `CC(Cl)C(=O)N1CCCC1Cc1cccc(F)c1F` (stereo not drawn) [7-E19, 2-chloro-1-{2-[(2,3-difluorophenyl)methyl]pyrrolidin-1-yl}propan-1-one] it is 61.3%; for `CC(Cl)C(=O)N1CCN(C(=O)Cc2cccc(Cl)c2)C(C)C1` (stereo not drawn) [7-E20, 2-chloro-1-{4-[2-(3-chlorophenyl)acetyl]-3-methylpiperazin-1-yl}propan-1-one] it is 65.1%. The figure for `CC(Cl)C(=O)NCCNC(=O)c1ccoc1` (stereo not drawn) [7-E21, 2-chloro-N-{2-[(furan-3-yl)formamido]ethyl}propanamide] is 90.5%; for `CC1CN(C(=O)c2ccc(NC(=O)C(C)Cl)cc2)CC(C)O1` (stereo not drawn) [7-E22, 2-chloro-N-[4-(2,6-dimethylmorpholine-4-carbonyl)phenyl]propanamide] it is 79.1%. As to `O=C(CCl)NC(c1ccccc1)C1CC1c1ccncc1` (stereo not drawn) [7-F03, 2-chloro-N-{phenyl[2-(pyridin-4-yl)cyclopropyl]methyl}acetamide hydrochloride], the viability at 48 h, 25 µM came out at 0.921%. The figure for `Cc1cccc(Cl)c1CCCNC(=O)CCl` [7-F04, 2-chloro-N-[3-(2-chloro-6-methylphenyl)propyl]acetamide] is 0.614%. In the case of `CC(Cl)C(=O)NCCN(C)S(=O)(=O)c1cccs1` (stereo not drawn) [7-F05, 2-chloro-N-[2-(N-methylthiophene-2-sulfonamido)ethyl]propanamide], the viability at 48 h, 25 µM worked out at 97.9%. The same measure for `CC(CO)(Cc1ccc(F)cc1)NC(=O)CCl` (stereo not drawn) [7-F06, 2-chloro-N-{2-[(4-fluorophenyl)methyl]-1-hydroxypropan-2-yl}acetamide]: 3.71%; for `CCC1CN(CCn2cccn2)CCN1C(=O)C(C)Cl` (stereo not drawn) [7-F07, 2-chloro-1-{2-ethyl-4-[2-(1H-pyrazol-1-yl)ethyl]piperazin-1-yl}propan-1-one]: 98.7%. The same measure for `Cc1nc(C(NC(=O)CCl)c2ccccc2)no1` (stereo not drawn) [7-F08, 2-chloro-N-[(5-methyl-1,2,4-oxadiazol-3-yl)(phenyl)methyl]acetamide]: 1.04%; for `CC(Cl)C(=O)NCCc1nc(C2CCCCC2)cs1` (stereo not drawn) [7-F09, 2-chloro-N-[2-(4-cyclohexyl-1,3-thiazol-2-yl)ethyl]propanamide]: 84.8%; for `O=C(CCl)NC1COc2ncccc21` (stereo not drawn) [7-F10, 2-chloro-N-{2H,3H-furo[2,3-b]pyridin-3-yl}acetamide]: 53.7%.

Regarding `CC(Cl)C(=O)N1Cc2ccccc2OCC1C` (stereo not drawn) [7-F11, 2-chloro-1-(3-methyl-2,3,4,5-tetrahydro-1,4-benzoxazepin-4-yl)propan-1-one], the viability at 48 h, 25 µM stood at 86.6%. The figure for `Cc1nc2n(n1)CCCC2NC(=O)CCl` (stereo not drawn) [7-F12, 2-chloro-N-{2-methyl-5H,6H,7H,8H-[1,2,4]triazolo[1,5-a]pyridin-8-yl}acetamide] is 58.1%. The same measure for `CC(Cl)C(=O)N1CCN(Cc2cnn(-c3ccccc3)c2)CC1` (stereo not drawn) [7-F13, 2-chloro-1-{4-[(1-phenyl-1H-pyrazol-4-yl)methyl]piperazin-1-yl}propan-1-one]: 93%. Consider `CC(c1ccc(C(F)(F)F)c(Cl)c1)N(C)C(=O)CCl` (stereo not drawn) [7-F14, 2-chloro-N-{1-[3-chloro-4-(trifluoromethyl)phenyl]ethyl}-N-methylacetamide], for which the viability at 48 h, 25 µM was 0.626%.

For `Cc1cc(C)n(C2CN(C(=O)C(C)Cl)C2)n1` (stereo not drawn) [7-F15, 2-chloro-1-[3-(3,5-dimethyl-1H-pyrazol-1-yl)azetidin-1-yl]propan-1-one], the viability at 48 h, 25 µM stood at 85.3%. The same measure for `C[C@@H](NC(=O)CCl)c1cnnn1C` [7-F16, 2-chloro-N-[(1R)-1-(1-methyl-1H-1,2,3-triazol-5-yl)ethyl]acetamide]: 44.8%; for `CC(Cl)C(=O)NC1CCCCC1n1cccn1` (stereo not drawn) [7-F17, 2-chloro-N-[2-(1H-pyrazol-1-yl)cyclohexyl]propanamide]: 97.9%. The figure for `Cc1ccc(C)n1C1CCC(NC(=O)CCl)CC1` (stereo not drawn) [7-F18, 2-chloro-N-[4-(2,5-dimethyl-1H-pyrrol-1-yl)cyclohexyl]acetamide] is 106%; for `CC(Cl)C(=O)N1CCCC1c1nc(N(C)C)no1` (stereo not drawn) [7-F19, 2-chloro-1-{2-[3-(dimethylamino)-1,2,4-oxadiazol-5-yl]pyrrolidin-1-yl}propan-1-one] it is 77.6%; for `O=C(CCl)NC1CCCc2c1cnn2Cc1ccccc1` (stereo not drawn) [7-F20, N-(1-benzyl-4,5,6,7-tetrahydro-1H-indazol-4-yl)-2-chloroacetamide] it is 0.873%. For the compound `Cc1nn(C)c(NC(=O)C(C)Cl)c1-c1ccccc1` (stereo not drawn) [7-F21, 2-chloro-N-(1,3-dimethyl-4-phenyl-1H-pyrazol-5-yl)propanamide], the viability at 48 h, 25 µM came out at 84.5%. For the compound `O=C(CCl)NC(c1cc(F)ccc1F)C(F)F` (stereo not drawn) [7-F22, 2-chloro-N-[1-(2,5-difluorophenyl)-2,2-difluoroethyl]acetamide], the viability at 48 h, 25 µM is 0.697%. The figure for `CNC(=O)c1cc(OC2CCN(C(=O)C(C)Cl)C2)ccn1` (stereo not drawn) [7-G03, 4-{[1-(2-chloropropanoyl)pyrrolidin-3-yl]oxy}-N-methylpyridine-2-carboxamide] is 111%; for `Cc1noc(C2CN(C(=O)C(C)Cl)C2)n1` (stereo not drawn) [7-G04, 2-chloro-1-[3-(3-methyl-1,2,4-oxadiazol-5-yl)azetidin-1-yl]propan-1-one] it is 92.2%. Turning to `CC(Cl)C(=O)N1CC(S(=O)(=O)Nc2ccccc2)C1` (stereo not drawn) [7-G05, 1-(2-chloropropanoyl)-N-phenylazetidine-3-sulfonamide], the viability at 48 h, 25 µM is 102%. The figure for `CC(Cl)C(=O)N1CCCN2c3ccccc3CC2C1` (stereo not drawn) [7-G06, 1-{1H,2H,3H,4H,5H,11H,11aH-[1,4]diazepino[1,2-a]indol-2-yl}-2-chloropropan-1-one] is 96.3%; for `CCOc1cccc(N2CCN(C(=O)C(C)Cl)CC2)n1` (stereo not drawn) [7-G07, 2-chloro-1-[4-(6-ethoxypyridin-2-yl)piperazin-1-yl]propan-1-one] it is 83.5%. The same measure for `CCn1cc(C2CN(C(=O)C(C)Cl)CCO2)cn1` (stereo not drawn) [7-G08, 2-chloro-1-[2-(1-ethyl-1H-pyrazol-4-yl)morpholin-4-yl]propan-1-one]: 89.1%; for `CC(Cl)C(=O)NC(C)c1ccc(C(F)(F)F)nc1Cl` (stereo not drawn) [7-G09, 2-chloro-N-{1-[2-chloro-6-(trifluoromethyl)pyridin-3-yl]ethyl}propanamide]: 83.5%. The figure for `CC(Cl)C(=O)N1CCN(c2nccc3sccc23)CC1` (stereo not drawn) [7-G10, 2-chloro-1-(4-{thieno[3,2-c]pyridin-4-yl}piperazin-1-yl)propan-1-one] is 83.5%; for `CC(Cl)C(=O)N(Cc1ccsc1)C1CC1` (stereo not drawn) [7-G11, 2-chloro-N-cyclopropyl-N-[(thiophen-3-yl)methyl]propanamide] it is 86.9%; for `CC1CCCN(C(=O)C(NC(=O)C(C)Cl)c2cnn(C)c2)C1` (stereo not drawn) [7-G12, 2-chloro-N-[1-(1-methyl-1H-pyrazol-4-yl)-2-(3-methylpiperidin-1-yl)-2-oxoethyl]propanamide] it is 81.1%.

As to `CC(Cl)C(=O)NC1CCCc2c1cnn2Cc1ccccc1` (stereo not drawn) [7-G13, N-(1-benzyl-4,5,6,7-tetrahydro-1H-indazol-4-yl)-2-chloropropanamide], the viability at 48 h, 25 µM came to 87.2%. The same measure for `CC(Cl)C(=O)N(c1ccccc1)C1CCOC1` (stereo not drawn) [7-G14, 2-chloro-N-(oxolan-3-yl)-N-phenylpropanamide]: 64.4%; for `CC(Cl)C(=O)NCC(c1ccccc1)c1nnc[nH]1` (stereo not drawn) [7-G15, 2-chloro-N-[2-phenyl-2-(4H-1,2,4-triazol-3-yl)ethyl]propanamide]: 114%.

Consider `CC(Cl)C(=O)NCC(NS(=O)(=O)N(C)C)C1CCCC1` (stereo not drawn) [7-G16, 2-chloro-N-{2-cyclopentyl-2-[(dimethylsulfamoyl)amino]ethyl}propanamide], for which the viability at 48 h, 25 µM was 91.3%. The same measure for `CC(Cl)C(=O)NCCc1nnnn1-c1ccccc1` (stereo not drawn) [7-G17, 2-chloro-N-[2-(1-phenyl-1H-1,2,3,4-tetrazol-5-yl)ethyl]propanamide]: 92.2%. The figure for `CC(Cl)C(=O)N1C2CCC1CC(O)(Cc1ccc(F)cc1F)C2` (stereo not drawn) [7-G18, 2-chloro-1-{3-[(2,4-difluorophenyl)methyl]-3-hydroxy-8-azabicyclo[3.2.1]octan-8-yl}propan-1-one] is 60%.

`CC(Cl)C(=O)NCc1ccc(C(=O)Nc2ccc(F)cc2)cc1` (stereo not drawn) [7-G19, 4-[(2-chloropropanamido)methyl]-N-(4-fluorophenyl)benzamide]: the viability at 48 h, 25 µM came out at 76.3%. The same measure for `Cc1ccccc1N(CC(=O)N1CCCCC1)C(=O)C(C)Cl` (stereo not drawn) [7-G20, 2-chloro-N-(2-methylphenyl)-N-[2-oxo-2-(piperidin-1-yl)ethyl]propanamide]: 70.7%.
